{"source": "paper PMC5218480", "about": "(PLoS ONE, 2017)", "test_system": "MV-4-11 cells", "assay": "Gene expression microarray analysis (Affymetrix PrimeView) and GSEA", "type": "cell-based, human", "design": "RFU PODN (11730768_x_at) / Fold change /veh PODN (11730768_x_at) / RFU LINC00158 (11744669_a_at) / Fold change /veh LINC00158 (11744669_a_at) / RFU DUSP10 (11751237_a_at) / Fold change /veh DUSP10 (11751237_a_at) / RFU ID3 (11757404_x_at) / Fold change /veh ID3 (11757404_x_at) / RFU PLEKHG5 (11737974_s_at) / Fold change /veh PLEKHG5 (11737974_s_at) / RFU LRRC4B (11730491_at) / Fold change /veh LRRC4B (11730491_at) / RFU GIMAP4 (11747438_a_at) / Fold change /veh GIMAP4 (11747438_a_at) / RFU KRT8 (11758183_x_at) / Fold change /veh KRT8 (11758183_x_at) / RFU CNN1 (11734310_a_at) / Fold change /veh CNN1 (11734310_a_at) / RFU VPS37D (11726825_at) / Fold change /veh VPS37D (11726825_at) / RFU C10orf10 (11716522_x_at) / Fold change /veh C10orf10 (11716522_x_at) / RFU KIR2DL2 /// KIR2DL4 /// KIR2DL5A /// KIR2DL5B /// KIR2DS1 /// KIR2DS2 /// KIR2DS3 /// KIR2DS4 /// KIR3DL3 /// KIR3DL3 /// KIR3DS1 (11738374_at) / Fold change /veh KIR2DL2 /// KIR2DL4 /// KIR2DL5A /// KIR2DL5B /// KIR2DS1 /// KIR2DS2 /// KIR2DS3 /// KIR2DS4 /// KIR3DL3 /// KIR3DL3 /// KIR3DS1 (11738374_at) / RFU C1QL1 (11718748_at) / Fold change /veh C1QL1 (11718748_at) / RFU TMPRSS4 (11747572_a_at) / Fold change /veh TMPRSS4 (11747572_a_at) / RFU HAMP (11756126_x_at) / Fold change /veh HAMP (11756126_x_at) / RFU RNFT2 (11725882_a_at) / Fold change /veh RNFT2 (11725882_a_at) / RFU NR4A2 (11747474_a_at) / Fold change /veh NR4A2 (11747474_a_at) / RFU ABCC12 (11746883_a_at) / Fold change /veh ABCC12 (11746883_a_at) / RFU TMEM136 (11760407_x_at) / Fold change /veh TMEM136 (11760407_x_at) / RFU CLDN22 /// WWC2 (11732394_at) / Fold change /veh CLDN22 /// WWC2 (11732394_at) / RFU HLA-DPB1 (11760878_x_at) / Fold change /veh HLA-DPB1 (11760878_x_at) / RFU SPINT1 (11716480_a_at) / Fold change /veh SPINT1 (11716480_a_at) / RFU GAP43 (11754022_s_at) / Fold change /veh GAP43 (11754022_s_at) / RFU A4GNT (11735810_at) / Fold change /veh A4GNT (11735810_at) / RFU PRB3 (11715151_x_at) / Fold change /veh PRB3 (11715151_x_at) / RFU TUBB4B (11761932_at) / Fold change /veh TUBB4B (11761932_at) / RFU CAPN14 (11732068_a_at) / Fold change /veh CAPN14 (11732068_a_at) / RFU TMCC2 (11721928_a_at) / Fold change /veh TMCC2 (11721928_a_at) / RFU IRGQ (11745062_a_at) / Fold change /veh IRGQ (11745062_a_at) / RFU FAM174B (11720279_a_at) / Fold change /veh FAM174B (11720279_a_at) / RFU TMPRSS4 (11748680_a_at) / Fold change /veh TMPRSS4 (11748680_a_at) / RFU FAM212B (11763350_a_at) / Fold change /veh FAM212B (11763350_a_at) / RFU PLEKHG5 (11743358_a_at) / Fold change /veh PLEKHG5 (11743358_a_at) / RFU ZSCAN30 (11745921_a_at) / Fold change /veh ZSCAN30 (11745921_a_at) / RFU CMKLR1 (11741424_a_at) / Fold change /veh CMKLR1 (11741424_a_at) / RFU LOC101060620 /// MAPK8IP1 (11723275_at) / Fold change /veh LOC101060620 /// MAPK8IP1 (11723275_at) / RFU SPTSSB (11747773_x_at) / Fold change /veh SPTSSB (11747773_x_at) / RFU PRSS12 (11739890_at) / Fold change /veh PRSS12 (11739890_at) / RFU BIN1 (11741810_x_at) / Fold change /veh BIN1 (11741810_x_at) / RFU WNT11 (11732464_a_at) / Fold change /veh WNT11 (11732464_a_at) / RFU C10orf10 (11716521_a_at) / Fold change /veh C10orf10 (11716521_a_at) / RFU C5orf56 (11738089_at) / Fold change /veh C5orf56 (11738089_at) / RFU CYB561 (11721691_x_at) / Fold change /veh CYB561 (11721691_x_at) / RFU ANKRD19P (11752326_a_at) / Fold change /veh ANKRD19P (11752326_a_at) / RFU OR2T12 /// OR2T33 /// OR2T8 (11738714_s_at) / Fold change /veh OR2T12 /// OR2T33 /// OR2T8 (11738714_s_at) / RFU VCAN (11748164_a_at) / Fold change /veh VCAN (11748164_a_at) / RFU JSRP1 (11732532_at) / Fold change /veh JSRP1 (11732532_at) / RFU KRTAP10-11 (11738290_x_at) / Fold change /veh KRTAP10-11 (11738290_x_at) / RFU MYO3A (11730013_a_at) / Fold change /veh MYO3A (11730013_a_at) / RFU EBF3 (11725865_a_at) / Fold change /veh EBF3 (11725865_a_at) / RFU CAMK2N1 (11719241_x_at) / Fold change /veh CAMK2N1 (11719241_x_at) / RFU C5orf56 (11738088_a_at) / Fold change /veh C5orf56 (11738088_a_at) / RFU OLFML3 (11715873_a_at) / Fold change /veh OLFML3 (11715873_a_at) / RFU LOC100653217 /// NTM (11731650_a_at) / Fold change /veh LOC100653217 /// NTM (11731650_a_at) / RFU MAPK11 (11762145_a_at) / Fold change /veh MAPK11 (11762145_a_at) / RFU FIZ1 (11724087_x_at) / Fold change /veh FIZ1 (11724087_x_at) / RFU OASL (11726364_x_at) / Fold change /veh OASL (11726364_x_at) / RFU SOX15 (11748057_x_at) / Fold change /veh SOX15 (11748057_x_at) / RFU CD79A (11719716_a_at) / Fold change /veh CD79A (11719716_a_at) / RFU HIST1H1D (11736915_at) / Fold change /veh HIST1H1D (11736915_at) / RFU CASKIN2 (11723855_a_at) / Fold change /veh CASKIN2 (11723855_a_at) / RFU LOC730098 (11760151_x_at) / Fold change /veh LOC730098 (11760151_x_at) / RFU OR4N2 (11742367_at) / Fold change /veh OR4N2 (11742367_at) / RFU PRRT2 (11749266_a_at) / Fold change /veh PRRT2 (11749266_a_at) / RFU SNX32 (11753110_a_at) / Fold change /veh SNX32 (11753110_a_at) / RFU CDHR5 (11726645_a_at) / Fold change /veh CDHR5 (11726645_a_at) / RFU RCAN1 (11760418_a_at) / Fold change /veh RCAN1 (11760418_a_at) / RFU FAM167A (11723789_a_at) / Fold change /veh FAM167A (11723789_a_at) / RFU FAM26E (11764081_at) / Fold change /veh FAM26E (11764081_at) / RFU ISYNA1 (11749810_s_at) / Fold change /veh ISYNA1 (11749810_s_at) / RFU ACY1 (11761880_at) / Fold change /veh ACY1 (11761880_at) / RFU 11764098_at / Fold change /veh 11764098_at / RFU SAMD14 (11745864_x_at) / Fold change /veh SAMD14 (11745864_x_at) / RFU NPB (11741838_a_at) / Fold change /veh NPB (11741838_a_at) / RFU TMPRSS6 (11731388_a_at) / Fold change /veh TMPRSS6 (11731388_a_at) / RFU KRTAP10-2 (11738614_at) / Fold change /veh KRTAP10-2 (11738614_at) / RFU ARHGAP8 /// PRR5-ARHGAP8 (11727945_x_at) / Fold change /veh ARHGAP8 /// PRR5-ARHGAP8 (11727945_x_at) / RFU KRTAP5-7 /// NADSYN1 (11734609_at) / Fold change /veh KRTAP5-7 /// NADSYN1 (11734609_at) / RFU RASL12 (11751679_a_at) / Fold change /veh RASL12 (11751679_a_at) / RFU CDKN2B (11736163_a_at) / Fold change /veh CDKN2B (11736163_a_at) / RFU PRF1 (11729649_at) / Fold change /veh PRF1 (11729649_at) / RFU, ZNF638 /// ZNF638-IT1 / Fold change vs veh, ZNF638 /// ZNF638-IT1 / RFU, PANK3 / Fold change vs veh, PANK3 / RFU, SH3YL1 / Fold change vs veh, SH3YL1 / RFU, ZEB2 / Fold change vs veh, ZEB2 / RFU, NRIP1 / Fold change vs veh, NRIP1 / RFU, PTTG1IP / Fold change vs veh, PTTG1IP / RFU, CAPN2 / Fold change vs veh, CAPN2 / RFU, MED14 / Fold change vs veh, MED14 / RFU, SNORA58 / Fold change vs veh, SNORA58 / RFU, C1orf63 / Fold change vs veh, C1orf63 / RFU, LRRFIP1 / Fold change vs veh, LRRFIP1 / RFU, NDUFAF7 / Fold change vs veh, NDUFAF7 / RFU, SLC12A2 / Fold change vs veh, SLC12A2 / RFU, IBTK / Fold change vs veh, IBTK / RFU, ESF1 / Fold change vs veh, ESF1 / Fold change vs veh, TMEM50B / RFU, TAOK1 / Fold change vs veh, TAOK1 / RFU, ACBD3 / Fold change vs veh, ACBD3 / RFU, TMA16 / Fold change vs veh, TMA16 / RFU, RWDD3 / Fold change vs veh, RWDD3 / RFU, BCAT1 / Fold change vs veh, BCAT1 / RFU, EDEM3 / Fold change vs veh, EDEM3 / RFU, TMEM33 / Fold change vs veh, TMEM33 / RFU, WDR75 / Fold change vs veh, WDR75 / RFU, AHCTF1 / Fold change vs veh, AHCTF1 / RFU, TFRC / Fold change vs veh, TFRC / RFU, ZDHHC17 / Fold change vs veh, ZDHHC17 / RFU, NOM1 / Fold change vs veh, NOM1 / RFU, ARL8B / Fold change vs veh, ARL8B / RFU, ZBTB11 / Fold change vs veh, ZBTB11 / RFU, TAMM41 / Fold change vs veh, TAMM41 / RFU, KIAA1704 /// LOC100996395 / Fold change vs veh, KIAA1704 /// LOC100996395 / RFU, ING1 / Fold change vs veh, ING1 / RFU, TRMT61B / Fold change vs veh, TRMT61B / RFU, FUBP3 / Fold change vs veh, FUBP3 / RFU, TP53 / Fold change vs veh, TP53 / RFU, TNKS2 / Fold change vs veh, TNKS2 / RFU, ZFP14 / Fold change vs veh, ZFP14 / RFU, ACTR2 / Fold change vs veh, ACTR2 / RFU, PPP3R1 / Fold change vs veh, PPP3R1 / RFU, PIK3R1 / Fold change vs veh, PIK3R1 / RFU, HNRNPA1 / Fold change vs veh, HNRNPA1 / RFU, RNF170 / Fold change vs veh, RNF170 / RFU, ZNF28 / Fold change vs veh, ZNF28 / RFU, RNGTT / Fold change vs veh, RNGTT / RFU, OGT / Fold change vs veh, OGT / RFU, BRD1 / Fold change vs veh, BRD1 / RFU, MARS / Fold change vs veh, MARS / RFU, ZNF655 / Fold change vs veh, ZNF655 / RFU, FAHD1 / Fold change vs veh, FAHD1 / RFU, BDP1 / Fold change vs veh, BDP1 / RFU, LRRCC1 / Fold change vs veh, LRRCC1 / RFU, ARID1A / Fold change vs veh, ARID1A / RFU, ZNF146 / Fold change vs veh, ZNF146 / RFU, ZNF330 / Fold change vs veh, ZNF330 / RFU, GPN3 / Fold change vs veh, GPN3 / RFU, C9orf123 / Fold change vs veh, C9orf123 / RFU, N4BP2L2 / Fold change vs veh, N4BP2L2 / RFU, ARFIP1 / Fold change vs veh, ARFIP1 / RFU, FAM179B / Fold change vs veh, FAM179B / RFU, BCL10 / Fold change vs veh, BCL10 / RFU, UHRF1BP1L / Fold change vs veh, UHRF1BP1L / RFU, BET1 / Fold change vs veh, BET1 / RFU, CNOT2 / Fold change vs veh, CNOT2 / RFU, ZNF268 / Fold change vs veh, ZNF268 / Fold change vs veh, ZNF507 / RFU, DGCR2 / Fold change vs veh, DGCR2 / RFU, WDSUB1 / Fold change vs veh, WDSUB1 / Fold change vs veh, HSP90B1 /// MIR3652 / RFU, ADSS / Fold change vs veh, ADSS / RFU, GK / Fold change vs veh, GK / RFU, ZNF148 / Fold change vs veh, ZNF148 / RFU, TAF9 / Fold change vs veh, TAF9 / RFU, SLC1A5 / Fold change vs veh, SLC1A5 / RFU, SLMO2 / Fold change vs veh, SLMO2 / RFU, ABCC4 / Fold change vs veh, ABCC4 / RFU, LOC101060439 /// RAP1B / Fold change vs veh, LOC101060439 /// RAP1B / RFU, RFX7 / Fold change vs veh, RFX7 / RFU, GTPBP10 / Fold change vs veh, GTPBP10 / RFU, CNEP1R1 / Fold change vs veh, CNEP1R1 / RFU, BIVM-ERCC5 /// ERCC5 / Fold change vs veh, BIVM-ERCC5 /// ERCC5 / RFU, ILF3 / Fold change vs veh, ILF3 / RFU 11762660_at / Fold change /veh 11762660_at / RFU VCAN (11757783_s_at) / Fold change /veh VCAN (11757783_s_at) / RFU DDX43 (11728927_at) / Fold change /veh DDX43 (11728927_at) / RFU KRT8 (11758188_x_at) / Fold change /veh KRT8 (11758188_x_at) / RFU NKD1 (11759106_at) / Fold change /veh NKD1 (11759106_at) / RFU SRD5A1 (11742802_a_at) / Fold change /veh SRD5A1 (11742802_a_at) / RFU TPSAB1 /// TPSB2 (11721975_s_at) / Fold change /veh TPSAB1 /// TPSB2 (11721975_s_at) / RFU GSTM3 (11746129_a_at) / Fold change /veh GSTM3 (11746129_a_at) / RFU IL23R (11737362_x_at) / Fold change /veh IL23R (11737362_x_at) / RFU TMEM51 (11727254_a_at) / Fold change /veh TMEM51 (11727254_a_at) / RFU PIWIL2 (11732686_x_at) / Fold change /veh PIWIL2 (11732686_x_at) / RFU ORM1 (11744905_x_at) / Fold change /veh ORM1 (11744905_x_at) / RFU CCDC152 (11743942_at) / Fold change /veh CCDC152 (11743942_at) / RFU ECM1 (11717891_a_at) / Fold change /veh ECM1 (11717891_a_at) / RFU IL23R (11748794_a_at) / Fold change /veh IL23R (11748794_a_at) / RFU TNFAIP8L3 (11732012_x_at) / Fold change /veh TNFAIP8L3 (11732012_x_at) / RFU MBOAT4 (11741988_at) / Fold change /veh MBOAT4 (11741988_at) / RFU 11764193_at / Fold change /veh 11764193_at / RFU TMEM53 (11763286_at) / Fold change /veh TMEM53 (11763286_at) / RFU MAGEB2 (11727129_at) / Fold change /veh MAGEB2 (11727129_at) / RFU TMEM200A (11744735_a_at) / Fold change /veh TMEM200A (11744735_a_at) / RFU CCDC152 (11751479_a_at) / Fold change /veh CCDC152 (11751479_a_at) / RFU FAM211A (11726209_a_at) / Fold change /veh FAM211A (11726209_a_at) / RFU RGS16 (11746705_a_at) / Fold change /veh RGS16 (11746705_a_at) / RFU VCAN (11755009_s_at) / Fold change /veh VCAN (11755009_s_at) / RFU RHOB (11743442_s_at) / Fold change /veh RHOB (11743442_s_at) / RFU RGS16 (11720943_a_at) / Fold change /veh RGS16 (11720943_a_at) / RFU RGS16 (11720944_at) / Fold change /veh RGS16 (11720944_at) / RFU, VPS4B / Fold change vs veh, VPS4B / RFU, CREB1 / Fold change vs veh, CREB1 / RFU, DNAJC13 / Fold change vs veh, DNAJC13 / RFU, GNAQ / Fold change vs veh, GNAQ / RFU, CDK5R1 / Fold change vs veh, CDK5R1 / RFU, ZRANB3 / Fold change vs veh, ZRANB3 / RFU, CUL4A / Fold change vs veh, CUL4A / RFU, CCNY / Fold change vs veh, CCNY / RFU, UFL1 / Fold change vs veh, UFL1 / RFU, COG3 / Fold change vs veh, COG3 / RFU, DIAPH2 / Fold change vs veh, DIAPH2 / RFU, SKA2 / Fold change vs veh, SKA2 / RFU, AFF3 / Fold change vs veh, AFF3 / RFU, LMF1 / Fold change vs veh, LMF1 / RFU, IPO11 / Fold change vs veh, IPO11 / RFU, DFFB / Fold change vs veh, DFFB / RFU, FOXP1 / Fold change vs veh, FOXP1 / RFU, CARD8 / Fold change vs veh, CARD8 / RFU, STRN3 / Fold change vs veh, STRN3 / RFU, ADK / Fold change vs veh, ADK / RFU, RASSF2 / Fold change vs veh, RASSF2 / RFU, WIPF1 / Fold change vs veh, WIPF1 / RFU, LARP1B / Fold change vs veh, LARP1B / RFU, RASA1 / Fold change vs veh, RASA1 / RFU, RB1 / Fold change vs veh, RB1 / RFU, PPFIA1 / Fold change vs veh, PPFIA1 / RFU, MAT2A / Fold change vs veh, MAT2A / RFU, CCT5 / Fold change vs veh, CCT5 / RFU, WDR92 / Fold change vs veh, WDR92 / RFU, CUX1 / Fold change vs veh, CUX1 / RFU, TTC7A / Fold change vs veh, TTC7A / RFU, TMEM135 / Fold change vs veh, TMEM135 / RFU, DEPTOR / Fold change vs veh, DEPTOR / RFU, CPM / Fold change vs veh, CPM / RFU, DNAJB6 / Fold change vs veh, DNAJB6 / RFU, CACNA2D3 / Fold change vs veh, CACNA2D3 / RFU, DTX4 / Fold change vs veh, DTX4 / RFU, TFCP2 / Fold change vs veh, TFCP2 / RFU, GMCL1 /// GMCL1P1 / Fold change vs veh, GMCL1 /// GMCL1P1 / RFU, AEBP2 / Fold change vs veh, AEBP2 / RFU, SNHG1 /// SNORD22 /// SNORD25 /// SNORD26 /// SNORD27 /// SNORD28 /// SNORD29 /// SNORD31 / Fold change vs veh, SNHG1 /// SNORD22 /// SNORD25 /// SNORD26 /// SNORD27 /// SNORD28 /// SNORD29 /// SNORD31 / Fold change (Aza/veh), C12orf56 (ProbeSet 11735607_a_at) / Fold change (ACY-1035/veh), C12orf56 (ProbeSet 11735607_a_at) / Fold change (Aza/veh), FGFR1OP (ProbeSet 11751329_s_at) / Fold change (ACY-1035/veh), FGFR1OP (ProbeSet 11751329_s_at) / Fold change (Aza/veh), VPS36 (ProbeSet 11739960_a_at) / Fold change (ACY-1035/veh), VPS36 (ProbeSet 11739960_a_at) / RFU SYPL1 (11715823_x_at) / Fold change /veh SYPL1 (11715823_x_at) / RFU IGFBP7 (11715501_s_at) / Fold change /veh IGFBP7 (11715501_s_at) / RFU REEP3 (11722064_at) / Fold change /veh REEP3 (11722064_at) / RFU IGLL1 (11728026_x_at) / Fold change /veh IGLL1 (11728026_x_at): dose or concentration left out as unconfirmed", "conditions": "MV-4-11 cells, 48 hours", "data": [{"smiles": "Nc1ncn([C@@H]2O[C@H](CO)[C@@H](O)[C@H]2O)c(=O)n1", "note": "[azacitidine]", "values": [{"measurement": "Fold change /veh VPS37D (11726825_at)", "value": 1.12}]}]}
